The record followed here is patent US12459972B2, “Protease-activated contrast agents for in vivo imaging” (THE BOARD OF TRUSTEES OF THE LELAND STANFORD JUNIOR …, priority 2015, dated 2025).

By Km is commonly meant the substrate concentration at which the rate is half of its maximum. As a reminder, the kcat is the maximal rate divided by the concentration of active sites.

The target in one assay is recombinant cathepsin V (Homo sapiens, UniProt O60911). The assay can be described thus: Enzyme kinetics / turnover of quenched substrates with recombinant cathepsin V. The note with it: for increase in efficiency, spacer n=6 relative to n=2 analog: Cat V, nCQ and nQC series respectively; for Km / kcat: recombinant cathepsin V, 5 nM enzyme; for Km: 50 mM citrate buffer pH 5.5, 37° C., average of three replicates ± standard error; for kcat: citrate buffer pH 5.5, 37° C. The class given is biochemical. On the procedure: (§1) The activity and selectivity of all 6 substrates were determined by monitoring the turnover curves of each internally quenched probe in the presence of various recombinant cysteine proteases, specifically cathepsins L, S, K, B, and V. Equal concentration (5 nM) of each enzyme was incubated with the different probes in 50 mM citrate buffer (pH=5.5, 5 mM DTT, 0.1% triton X, 0.5% CHAPS) at 37° C. The exact concentration of the various cathepsins used were confirmed by active site titration (Boucher et al. (2014) Methods Mol. Biol. 1133:3-39) using the covalent cysteine protease inhibitor ZFK-PMK and the commercial substrates Z-VVR-AMC for cathepsins S, L, B, and V, or Z-KR-AMC for cathepsin K. The rate of increase in Cy5 fluorescence (which is indicative of probe cleavage by cathepsins) was measured for each of the probes.

Assay [1] relates to 4T1 tumors (tumor associated cysteine cathepsins). The assay can be described thus: Non-invasive optical imaging with Cy5 substrates, syngeneic orthotopic 4T1 mouse model of breast cancer. The class given is in vivo. The note with it: for Cy5 fluorescence in frozen tumor sections: 24-hour endpoint, histology; for overall absolute fluorescence intensity in the tumors compared to non-lysosomotropic substrates 2CQ and 6CQ: intravenous, non-invasive imaging. As for the experimental part:
In this model 4T1 cells are inoculated into the left number 1 and 10 mammary fat pad of mice to generate tumors. In order to determine the impact of the LLE, imaging signals of lysosomotropic probes 2QC (compound 5) and 6QC (compound 7) were directly compared to those of the non-lysosomotropic analogues 2CQ (compound 2) and 6CQ (compound 4). Substrates were administered to tumor-bearing mice intravenously, and mice were imaged at various time points following the administration. […] The intensity of the fluorescent signal reached a maximum at 4 hour after administration, followed by a decrease in the signal intensity (FIG. 4B). […] Furthermore, the intensity of the signal remained constant over a period of 24 hours in the tumors of mice administered with the LLE substrates, whereas the signals from the non-LLE substrates were almost completely cleared after 24 hours (FIGS. 4A and 4B). A similar trend was observed by ex vivo imaging of tumors excised from mice that had been euthanized after 4 hours and after 24 hours (FIG. 4C).
In order to determine which populations of cells are responsible for activating the quenched substrate probes in vivo, immunofluorescence staining on frozen sliced sections of tumors isolated from mice injected with each substrate was performed using a macrophage-selective marker CD68. The Cy5 signal of the substrate co-localized to only CD68-positive cells (macrophages), with no signals observed in the 4T1 tumor cell (FIG. 5A). Moreover, Cy5 fluorescence was only observed in tissues from mice that received nQC substrates and not in tissues from mice treated with nCQ substrates (FIG. 5B).

The target of a further assay is recombinant cathepsin L (Homo sapiens, UniProt P07711). The assay can be described thus: Enzyme kinetics / turnover of quenched substrates with recombinant cathepsin L. The class given is biochemical. The note with it: for increase in catalytic efficiency, spacer n=6 relative to n=2 analog: Cat L, 6CQ vs 2CQ, 6QC vs 2QC; for Km / kcat: recombinant cathepsin L, 5 nM enzyme; for Km: 50 mM citrate buffer pH 5.5, 37° C., average of three replicates ± standard error; for kcat: citrate buffer pH 5.5, 37° C. As for the experimental part:
as §1

For assay [2], the system named is 4T1 tumors (tumor associated cysteine cathepsins). The assay can be described thus: Non-invasive imaging with NIR probes in 4T1 breast cancer model, IVIS-spectrum. The class given is in vivo, mouse. The note with it: 24 hour time course. From the text: The optimized substrate probes described above have therefore been tested in a clinically relevant model systems of FGS. […] In these compounds, the Cy5 chromophore was strategically substituted with a similar molecular weight near infrared (NIR) DyLight 780-B1 fluorophore. The compound with a linker having n=6 was chosen based on the optimal turnover numbers by cathepsins in vitro. The QSY21-sulfo quencher was also substituted with IRDye QC-1, which is a dark NIR quencher (FIG. 6A). In addition to being detectable on the camera system of the da Vinci robot, the emission wavelength of the NIR dye (absorption/emission maxima of 783/799 nm) falls within a window with low overall background and will therefore enhance tissue penetration and improve signal to background ratio during imaging. Richards-Kortum and Sevick-Muraca (1996) Annu. Rev. Phys. Chem. 47:555-606. The NIR probes were first analyzed as contrast agents in the 4T1 breast cancer model described above, using the IVIS-spectrum imaging system. Following systemic administration of the contrast agents, mice were imaged non-invasively every hour for 4 hours, and then at 6, 8, 12 and 24 hours post injection of the substrate. […] The intensity of the fluorescence signal in the tumors increased rapidly in mice injected with both types of probes, and it eventually peaked between 4 to 6 hours. […]

recombinant cathepsin V, sequence (O60911 114-334): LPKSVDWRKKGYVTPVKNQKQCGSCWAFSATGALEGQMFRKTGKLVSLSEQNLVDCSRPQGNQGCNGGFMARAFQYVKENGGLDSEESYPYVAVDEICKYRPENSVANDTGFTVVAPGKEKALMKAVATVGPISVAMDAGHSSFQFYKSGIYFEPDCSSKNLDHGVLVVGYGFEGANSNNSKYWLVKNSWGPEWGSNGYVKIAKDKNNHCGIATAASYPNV
recombinant cathepsin L, sequence (P07711 114-333, species assumed): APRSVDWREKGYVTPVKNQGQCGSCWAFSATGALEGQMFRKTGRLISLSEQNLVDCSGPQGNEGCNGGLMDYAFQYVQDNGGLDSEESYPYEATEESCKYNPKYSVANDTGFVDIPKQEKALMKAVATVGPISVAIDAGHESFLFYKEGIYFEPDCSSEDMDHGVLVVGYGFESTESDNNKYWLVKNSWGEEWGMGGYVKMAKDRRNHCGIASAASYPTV

Take `CC[N+]1=C(C=CC=CC=C2N(CCCCCC(=O)NCCCCCCNC(=O)[C@H](CCCCNC(=O)C3CCN(S(=O)(=O)c4ccccc4-c4c5ccc(=[N+]6CCc7cc(S(=O)(=O)O)ccc76)cc-5oc5cc(N6CCc7cc(S(=O)(=O)O)ccc76)ccc45)CC3)NC(=O)[C@H](Cc3ccccc3)NC(=O)OCc3ccccc3)c3ccc(S(=O)(=O)O)cc3C2(C)C)C(C)(C)c2cc(S(=O)(=O)O)ccc21` [6QC]: at recombinant cathepsin V, the “increase in efficiency, spacer n=6 relative to n=2 analog” value was determined as 4 fold; the Km is 4.4 ± 0.2 µM; the kcat was determined as 0.150 s⁻¹. Besides, in assay [1], the “Cy5 fluorescence in frozen tumor sections” value is on record as “observed”; the “overall absolute fluorescence intensity in the tumors compared to non-lysosomotropic substrates 2CQ and 6CQ” value is “higher and brighter”. Besides, at recombinant cathepsin L, the “increase in catalytic efficiency, spacer n=6 relative to n=2 analog” value turned out to be 6 fold; the Km was found to be 5.3 ± 0.8 µM; the kcat was found to be 0.458 s⁻¹.

Consider `CC[N+]1=C(C=CC=CC=C2N(CCCCCC(=O)NCCCCNC(=O)[C@H](CCCCNC(=O)C3CCN(S(=O)(=O)c4ccccc4-c4c5ccc(=[N+]6CCc7cc(S(=O)(=O)O)ccc76)cc-5oc5cc(N6CCc7cc(S(=O)(=O)O)ccc76)ccc45)CC3)NC(=O)[C@H](Cc3ccccc3)NC(=O)OCc3ccccc3)c3ccc(S(=O)(=O)O)cc3C2(C)C)C(C)(C)c2cc(S(=O)(=O)O)ccc21` [4QC], for which, on recombinant cathepsin V, the Km was found to be 4.8 ± 0.2 µM and the kcat was 0.188 s⁻¹. On recombinant cathepsin L, the Km was 8.6 ± 1.3 µM and the kcat was found to be 0.396 s⁻¹.

With `CC[N+]1=C(C=CC=CC=C2N(CCCCCC(=O)NCCNC(=O)[C@H](CCCCNC(=O)C3CCN(S(=O)(=O)c4ccccc4-c4c5ccc(=[N+]6CCc7cc(S(=O)(=O)O)ccc76)cc-5oc5cc(N6CCc7cc(S(=O)(=O)O)ccc76)ccc45)CC3)NC(=O)[C@H](Cc3ccccc3)NC(=O)OCc3ccccc3)c3ccc(S(=O)(=O)O)cc3C2(C)C)C(C)(C)c2cc(S(=O)(=O)O)ccc21` [2QC], at recombinant cathepsin V, the Km was found to be 0.9 ± 0.1 µM and the kcat turned out to be 0.008 s⁻¹. Also, in assay [1], the “Cy5 fluorescence in frozen tumor sections” value was “observed”; the “overall absolute fluorescence intensity in the tumors compared to non-lysosomotropic substrates 2CQ and 6CQ” value is “higher and brighter”. At recombinant cathepsin L, the Km is 6.5 ± 1.5 µM and the turnover number (kcat) was 0.095 s⁻¹.

On to `CC[N+]1=C(C=CC=CC=C2N(CCCCCC(=O)NCCCC[C@H](NC(=O)[C@H](Cc3ccccc3)NC(=O)OCc3ccccc3)C(=O)NCCNC(=O)C3CCN(S(=O)(=O)c4ccccc4-c4c5ccc(=[N+]6CCc7cc(S(=O)(=O)O)ccc76)cc-5oc5cc(N6CCc7cc(S(=O)(=O)O)ccc76)ccc45)CC3)c3ccc(S(=O)(=O)O)cc3C2(C)C)C(C)(C)c2cc(S(=O)(=O)O)ccc21` [2CQ], for which, at recombinant cathepsin V, the Km came out at 5 ± 0.4 µM and the kcat amounted to 0.014 s⁻¹. At recombinant cathepsin L, the Km worked out at 6.4 ± 0.8 µM and the kcat was 0.141 s⁻¹.

As to `CC[N+]1=C(C=CC=CC=C2N(CCCCCC(=O)NCCCC[C@H](NC(=O)[C@H](Cc3ccccc3)NC(=O)OCc3ccccc3)C(=O)NCCCCCCNC(=O)C3CCN(S(=O)(=O)c4ccccc4-c4c5ccc(=[N+]6CCc7cc(S(=O)(=O)O)ccc76)cc-5oc5cc(N6CCc7cc(S(=O)(=O)O)ccc76)ccc45)CC3)c3ccc(S(=O)(=O)O)cc3C2(C)C)C(C)(C)c2cc(S(=O)(=O)O)ccc21` [6CQ], at recombinant cathepsin V, the “increase in efficiency, spacer n=6 relative to n=2 analog” value came out at 8 fold; the Km turned out to be 6.8 ± 0.4 µM; the kcat was determined as 0.164 s⁻¹. For the same molecule, on recombinant cathepsin L, the “increase in catalytic efficiency, spacer n=6 relative to n=2 analog” value came to 4 fold; the Km stood at 5.4 ± 0.5 µM; the kcat was 0.487 s⁻¹.

Take `CCN(CC)c1ccc2c(C(C)(C)C)cc(C=CC=CC=C3N(CCCCCC(=O)NCCCCCCNC(=O)[C@H](CCCCNC(=O)CCCCCN4C(=CC=C5CCCC(C=CC6=[N+](CCCS(=O)(=O)O)c7ccc(N(CCCS(=O)(=O)O)CCCS(=O)(=O)O)cc7C6(C)C)=C5Cl)C(C)(C)c5c4ccc4cc(S(=O)(=O)O)ccc54)NC(=O)[C@H](Cc4ccccc4)NC(=O)OCc4ccccc4)c4ccc(S(=O)(=O)O)cc4C3(C)C)[o+]c2c1` [6QCNIR]: the “clearance rate and signal in tumors relative to the non-LLE substrate” value in assay [2] is “slower clearance rate and brighter signal”.

Take `CC[N+]1=C(C=CC=CC=C2N(CCCCCC(=O)NCCCC[C@H](NC(=O)[C@H](Cc3ccccc3)NC(=O)OCc3ccccc3)C(=O)NCCCCNC(=O)C3CCN(S(=O)(=O)c4ccccc4-c4c5ccc(=[N+]6CCc7cc(S(=O)(=O)O)ccc76)cc-5oc5cc(N6CCc7cc(S(=O)(=O)O)ccc76)ccc45)CC3)c3ccc(S(=O)(=O)O)cc3C2(C)C)C(C)(C)c2cc(S(=O)(=O)O)ccc21` [4CQ]: the Km at recombinant cathepsin V amounted to 3.4 ± 0.3 µM; on recombinant cathepsin L it was 4.6 ± 0.7 µM. The kcat on recombinant cathepsin V came to 0.073 s⁻¹; on recombinant cathepsin L, 0.283 s⁻¹.
